# Reference: patent US20250197379A1 (KHR Biotec GmbH, priority 2021, published 2025)
# Key:
# elF4A1 = target: T1, elF4A1 (Homo sapiens, UniProt P60842); experiment: Dual luciferase assay for cap dependent translation initiation (eIF4A); conditions: Biochemical and cell based activity
# T1 construct: endogenous in cells; host or cells: HeLa
# Procedure: Dual luciferase assay for Cap-dependent translation initiation was performed in HeLa cells transfected with pFR_HCV_xb. […] After incubation, Dual luciferase reporter assay was performed according to the manufacturer's instruction and the luminescence was measured using a multiplate reader. Data were normalized to cells transfected with the indicated mutant and exposed to DMSO for 24 h. DMSO-treated cells were set as 1. The bars represent mean±SD from 3 independent experiments. The dot plot indicate the value from each experiment.
# KRAS G12V = target: T2, KRAS G12V (Homo sapiens, UniProt P01116, G12V); experiment: NanoBiT assay for RAS activation (KRAS G12V); conditions: Biochemical and cell based activity
# T2 construct: K, N and HRAS G12V (full length) was cloned with Xho I and Bgl I to LgBit; expressed in transfected cells; host or cells: HeLa
# Procedure: N-terminal LgBiT and C-terminal SmBiT construct was purchased from Promega and K, N and HRAS G12V (full length) was cloned with Xho I and Bgl I to LgBit and CRAF Ras binding domain (1-149) was cloned with EcoRI and Bgl II to SmBit. For transfections, 1 μg or 2 μg of (12 well/6 well) plasmids were transfected into cells with 0.5 mM of PEI reagent in 100 μl or 200 μl PBS. One day after transfection, cells were harvested and seeded into 96 well white plates (Greiner) or 384 well white plate (Greiner). After an additional day the medium was changed to serum free DMEM and the cells were incubated for 2 h with the compounds according to the invention. NanoGlo assay was performed according to the manufacturer's instructions. The luminescence was measured using Tecan infinite (Tecan).
# In vitro DMPK: CLi Human = assay type: in vitro ADME
# T2 sequence (P01116 1-188 isoform P01116-2 G12V): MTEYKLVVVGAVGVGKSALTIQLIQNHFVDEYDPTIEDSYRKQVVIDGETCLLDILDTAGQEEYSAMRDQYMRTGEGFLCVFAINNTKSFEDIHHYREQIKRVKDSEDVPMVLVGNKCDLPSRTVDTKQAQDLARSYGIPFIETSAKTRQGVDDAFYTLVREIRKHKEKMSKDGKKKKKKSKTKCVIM
# T1 sequence (P60842 whole entry): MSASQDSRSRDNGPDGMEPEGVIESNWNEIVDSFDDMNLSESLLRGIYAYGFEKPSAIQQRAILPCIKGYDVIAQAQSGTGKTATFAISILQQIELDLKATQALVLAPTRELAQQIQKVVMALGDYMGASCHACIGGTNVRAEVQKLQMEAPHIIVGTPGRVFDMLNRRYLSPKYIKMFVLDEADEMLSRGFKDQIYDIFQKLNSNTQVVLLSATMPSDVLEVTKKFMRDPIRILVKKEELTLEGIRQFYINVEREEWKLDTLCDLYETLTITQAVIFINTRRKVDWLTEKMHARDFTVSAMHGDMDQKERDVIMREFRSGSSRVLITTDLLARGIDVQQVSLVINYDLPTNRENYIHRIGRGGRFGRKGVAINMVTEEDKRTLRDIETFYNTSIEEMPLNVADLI
Compound,IC50 (elF4A1),IC50 (KRAS G12V),CLi Human (In vitro DMPK: CLi Human)
"COc1cc(OC)c2c(c1)O[C@@]1(c3ccc(Cl)cc3)[C@H](c3cccc(F)c3)C[C@H](NC(=O)N3CCN(C)CC3)[C@@]21O (single isomer, unassigned) [Compound 2]",84 nM,79 nM,5.5 µL/min/mg
"COc1cc(OC)c2c(c1)O[C@@]1(c3ccc(Cl)cc3)[C@H](c3cccc(F)c3)C[C@H](NC(=O)N3CCCC3)[C@@]21O (single isomer, unassigned) [Compound 5]",60 nM,95 nM,–
"COc1cc(OC)c2c(c1)O[C@@]1(c3ccc(Cl)cc3)[C@H](c3cccc(F)c3)C[C@H](NC(=O)NC(C)C)[C@@]21O (single isomer, unassigned) [Compound 8]",120 nM,78 nM,31 µL/min/mg
"CCN(CC)C(=O)N[C@H]1C[C@@H](c2cccc(F)c2)[C@]2(c3ccc(Cl)cc3)Oc3cc(OC)cc(OC)c3[C@]12O (single isomer, unassigned) [Compound 11]",75 nM,94 nM,–
"COc1cc(OC)c2c(c1)OC1(c3ccc(Cl)cc3)[C@@H](c3cccc(F)c3)CC(NC(=O)N(C)C)C21O (single isomer, unassigned) [Compound C2, reference compound]",63 nM,55 nM,290 µL/min/mg
COc1cc(OC)c2c(c1)O[C@@]1(c3ccc(Cl)cc3)[C@H](c3cccc(F)c3)C[C@H](NC(=O)N3CCOCC3)[C@@]21O [Compound 19],80 nM,58 nM,–
COc1cc(OC)c2c(c1)O[C@@]1(c3ccc(C#N)cc3)[C@H](c3cccc(F)c3)C[C@H](NC(=O)N3CCC3)[C@@]21O [Compound 36],25 nM,24 nM,–
COc1cc(OC)c2c(c1)O[C@@]1(c3ccc(C#N)cc3)[C@H](c3cccc(F)c3)C[C@H](NC(=O)N3CCOCC3)[C@@]21O [Compound 37],24 nM,19 nM,64 µL/min/mg
COc1cc(OC)c2c(c1)O[C@@]1(c3ccc(C#N)cc3)[C@H](c3cccc(F)c3)C[C@H](NC(=O)N3CCN(C)CC3)[C@@]21O [Compound 38],21 nM,21 nM,–
COc1cc(OC)c2c(c1)O[C@@]1(c3ccc(Cl)cc3)[C@H](c3cccc(F)c3)C[C@H](NC(=O)N3CCS(=O)(=O)CC3)[C@@]21O [Compound 39],39 nM,32 nM,–
COc1cc(OC)c2c(c1)O[C@@]1(c3ccc(Cl)cc3)[C@H](c3cccc(F)c3)C[C@H](NC(=O)N3CCC(N(C)C)CC3)[C@@]21O [Compound 40],143 nM,97 nM,–
COc1cc(OC)c2c(c1)O[C@@]1(c3ccc(Cl)cc3)[C@H](c3cccc(F)c3)C[C@H](NC(=O)N3CC(N(C)C)C3)[C@@]21O [Compound 41],55 nM,50 nM,–
COc1cc(OC)c2c(c1)O[C@@]1(c3ccc(Cl)cc3)[C@H](c3cccc(F)c3)C[C@H](NC(=O)NCCO)[C@@]21O [Compound 42],54 nM,48 nM,–
COc1cc(OC)c2c(c1)O[C@@]1(c3ccc(Cl)cc3)[C@H](c3cccc(F)c3)C[C@H](NC(=O)N3CC4CCC(C3)N4C)[C@@]21O [Compound 43],80 nM,57 nM,–
COc1cc(OC)c2c(c1)O[C@@]1(c3ccc(C#N)cc3)[C@H](c3cccc(F)c3)C[C@H](NC(=O)N3CC4(COC4)C3)[C@@]21O [Compound 47],22 nM,41 nM,–
